As usually defined, the IC50 is the concentration at which inhibition is half-maximal.

Molecules are shown by their SMILES.

This experiment concerns the target T1, AHR (Homo sapiens, UniProt P35869).
T1 construct: other cell line with a DRE-luciferase reporter stably transfected; endogenous in cells; host or cells: Human HepG2 liver carcinoma AhR-Lucia reporter cells
T1 sequence (P35869 11-848): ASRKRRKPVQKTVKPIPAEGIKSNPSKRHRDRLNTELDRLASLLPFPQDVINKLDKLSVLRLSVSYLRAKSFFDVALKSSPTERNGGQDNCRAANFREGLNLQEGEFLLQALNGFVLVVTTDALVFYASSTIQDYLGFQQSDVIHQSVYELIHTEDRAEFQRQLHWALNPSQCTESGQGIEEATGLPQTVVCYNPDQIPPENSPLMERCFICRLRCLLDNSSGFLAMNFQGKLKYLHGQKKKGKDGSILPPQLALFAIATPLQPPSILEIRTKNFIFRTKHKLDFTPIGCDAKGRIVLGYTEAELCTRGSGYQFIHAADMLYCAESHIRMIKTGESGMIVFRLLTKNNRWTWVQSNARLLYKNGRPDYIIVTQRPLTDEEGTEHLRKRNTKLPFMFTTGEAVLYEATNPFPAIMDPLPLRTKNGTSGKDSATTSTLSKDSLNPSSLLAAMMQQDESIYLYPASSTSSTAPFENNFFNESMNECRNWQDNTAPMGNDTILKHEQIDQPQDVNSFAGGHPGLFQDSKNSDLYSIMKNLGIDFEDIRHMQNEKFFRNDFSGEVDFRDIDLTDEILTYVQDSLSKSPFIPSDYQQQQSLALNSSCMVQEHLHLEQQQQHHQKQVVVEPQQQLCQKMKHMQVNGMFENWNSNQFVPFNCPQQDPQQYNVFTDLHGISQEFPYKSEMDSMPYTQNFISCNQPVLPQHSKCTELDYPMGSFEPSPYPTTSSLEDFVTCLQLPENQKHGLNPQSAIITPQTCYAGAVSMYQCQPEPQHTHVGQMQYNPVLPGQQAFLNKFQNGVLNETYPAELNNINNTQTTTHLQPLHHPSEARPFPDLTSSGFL
Description: DRE-Luciferase Reporter Assay (HepG2 AhR-Lucia reporter cells). The class given is cell-based. Conditions: AHR activating ligand at its EC50, luciferase read-out, read-out: HEPG2 Luc IC50. An excerpt:
Example 27: DRE-Luciferase Reporter Assay
AHR binds to Dioxin Responsive Elements (DRE) upstream of genes that it activates. One measure of AHR activity is activation of a reporter gene, such as luciferase, downstream of one or multiple DRE elements. Luciferase activity will reflect activation and inhibition of AHR in the cells expressing his reporter. 20000 Human HepG2 liver carcinoma—AhR-Lucia reporter cells or Human HT29 colon adenocarcinoma—AhR reporter cells or other cell line with a DRE-luciferase reporter stably transfected were plated in Eagle's Minimal Essential Medium, 10% heat-inactivated FBS, 1×non-essential amino acids Pen-Strep (10,000 U/mL) and Normocin (100 ug/mL) in plates (96-well, 384-well or other plates) and incubated overnight at 37° C. in a CO2 incubator and treated with and without AhR antagonists at a log dilution starting at 100 uM.
After 1 hr that cells were plated an AHR activating ligand, such as TCDD, kynurenine, ITE (2-(1H-indole-3-ylcarbonyl)-4-thiazolecarboxylic methyl ester), VAF347, BNF (beta-naphthoflavone), FICZ (6-formylindolo(3,2-b) carbazole) or other AHR ligands at their specific EC50 concentration, were added to the cells with or without AHR antagonist.
Cells were incubated for 24 or 48 hours or another time point and then, supernatant was analyzed for determination of luciferase activity as a read-out of the AHR activation or inhibition. Luciferase was measured with the commercial kit QUANTI-Luc™ assay solution kit from Invivogen following the manufacturer's instructions.
The level of luciferase with only agonist ligand added was the maximum signal while the luciferase with […] was the minimum signal. IC50 values were determined as the concentration which inhibits half of the luciferase activity. “A” indicates an IC50 value less than 100 nM, “B” indicates an IC50 between 100 and 500 nM, “C” indicates an IC50 above 500 nM.
Regarding `Cn1nccc1C(=O)Nc1nc2ccc(-c3ccccc3C(F)F)nc2s1` [Product 3, N-(5-(2-(difluoromethyl)phenyl)thiazolo[5,4-b]pyridin-2-yl)-1-methyl-1H-pyrazole-5-carboxamide], the IC50 fell in the range of 0.1 to 0.5 µM.

Take `Cc1ccccc1-c1ccc2sc(NC(=O)c3ccnn3C)nc2n1` [Product 41, 1-methyl-N-(5-(o-tolyl)thiazolo[4,5-b]pyridin-2-yl)-1H-pyrazole-5-carboxamide]: the IC50 is above 0.5 µM.

As to `CN(CCO)c1ccccc1-c1ccc2nc(NC(=O)c3ccnn3C)sc2n1` [Product 37, N-(5-(2-((2-hydroxyethyl)(methyl)amino)phenyl)thiazolo[5,4-b]pyridin-2-yl)-1-methyl-1H-pyrazole-5-carboxamide], the IC50 lay in the range of 0.1 to 0.5 µM.

As to `Cc1ccccc1-c1ccc2nc(NC(=O)c3ncnn3C)sc2n1` [Product 2, 1-Methyl-N-(5-(o-tolyl)thiazolo[5,4-b]pyridin-2-yl)-1H-1,2,4-triazole-5-carboxamide], the IC50 was 0.1 to 0.5 µM.

With `CC(=O)Nc1nc2ccc(-c3ccccc3N(C)C)nc2s1` [Product 23, N-(5-(2-(dimethylamino)phenyl)thiazolo[5,4-b]pyridin-2-yl)acetamide], the IC50 is above 0.5 µM.

In the case of `Cc1ccccc1-c1cc2ncc(NC(=O)c3ncnn3C)cc2[nH]1` [Product 46], the IC50 lay within 0.1 to 0.5 µM.

In the case of `Cn1ncnc1C(=O)Nc1nc2ccc(-c3ccccc3C(F)F)nc2s1` [Product 7, N-(5-(2-(difluoromethyl)phenyl)thiazolo[5,4-b]pyridin-2-yl)-1-methyl-1H-1,2,4-triazole-5-carboxamide], the IC50 was above 0.5 µM.

As for `Cn1nccc1C(=O)Nc1nc2ccc(-c3ccccc3N3CCCC3)nc2s1` [Product 21, 1-Methyl-N-(5-(2-(pyrrolidin-1-yl)phenyl)thiazolo[5,4-b]pyridin-2-yl)-1H-pyrazole-5-carboxamide], the half-maximal inhibitory concentration (IC50) is above 0.5 µM.

As for `Cn1ncnc1C(=O)Nc1nc2ccc(-c3cc(F)ccc3C(F)F)nc2s1` [Product 11, N-(5-(2-(difluoromethyl)-5-fluorophenyl)thiazolo[5,4-b]pyridin-2-yl)-1-methyl-1H-1,2,4-triazole-5-carboxamide], the half-maximal inhibitory concentration (IC50) was above 0.5 µM.

`Cc1ccccc1-c1ccc2nc(NC(=O)c3ccnn3C)oc2n1` [Product 43, 1-methyl-N-(5-(o-tolyl)oxazolo[5,4-b]pyridin-2-yl)-1H-pyrazole-5-carboxamide]: the IC50 is above 0.5 µM.

For `Cc1nc(-c2ccc3nc(NC(=O)c4ccnn4C)sc3n2)sc1C` [Product 29, N-(5-(4,5-dimethylthiazol-2-yl)thiazolo[5,4-b]pyridin-2-yl)-1-methyl-1H-pyrazole-5-carboxamide], the concentration for half-maximal inhibition (IC50) was in the range of 0.1 to 0.5 µM.

Consider `Cn1nccc1C(=O)Nc1nc2ccc(-c3cc(F)ccc3C(F)F)nc2s1` [Product 5, N-(5-(2-(difluoromethyl)-5-fluorophenyl)thiazolo[5,4-b]pyridin-2-yl)-1-methyl-1H-pyrazole-5-carboxamide], for which the concentration for half-maximal inhibition (IC50) is above 0.5 µM.

On to `Cc1ccccc1-c1cc2sc(NC(=O)c3ccnn3C)nc2cn1` [Product 42, 1-methyl-N-(6-(o-tolyl)thiazolo[4,5-c]pyridin-2-yl)-1H-pyrazole-5-carboxamide], for which the IC50 was above 0.5 µM.

Consider `Cn1nccc1C(=O)Nc1nc2ccc(-c3ccccn3)nc2s1` [Product 27, 1-methyl-N-(5-(pyridin-2-yl)thiazolo[5,4-b]pyridin-2-yl)-1H-pyrazole-5-carboxamide], for which the IC50 was in the range of 0.1 to 0.5 µM.

For the molecule `Cc1ccccc1-c1cc2ncc(NC(=O)c3ccnn3C)nc2[nH]1` [Product 50, 1-methyl-N-(6-(o-tolyl)-5H-pyrrolo[2,3-b]pyrazin-3-yl)-1H-pyrazole-5-carboxamide], the IC50 was above 0.5 µM.

As for `Cc1ccccc1-c1cc2cnc(NC(=O)c3ccnn3C)nc2[nH]1` [Product 48], the concentration for half-maximal inhibition (IC50) lay within 0.1 to 0.5 µM.

Turning to `COc1ccccc1-c1ccc2nc(NC(=O)c3ccncc3)sc2n1` [Product 14, N-(5-(2-methoxyphenyl)thiazolo[5,4-b]pyridin-2-yl)isonicotinamide], the IC50 was below 0.1 µM.

For `Cn1nccc1C(=O)Nc1nc2ccc(-c3cccnc3)nc2s1` [Product 26, 1-Methyl-N-(5-(pyridin-3-yl)thiazolo[5,4-b]pyridin-2-yl)-1H-pyrazole-5-carboxamide], the IC50 was 0.1 to 0.5 µM.

With `Cn1nccc1C(=O)Nc1nc2ccc(-c3ccccc3C(F)(F)F)nc2s1` [Product 1, 1-methyl-N-(5-(2-(trifluoromethyl)phenyl)thiazolo[5,4-b]pyridin-2-yl)-1H-pyrazole-5-carboxamide], the 50% inhibitory concentration (IC50) is above 0.5 µM.

On to `CC(C)C(=O)Nc1ccccc1-c1ccc2nc(NC(=O)c3ccnn3C)sc2n1` [Product 34, N-(5-(2-isobutyramidophenyl)thiazolo[5,4-b]pyridin-2-yl)-1-methyl-1H-pyrazole-5-carboxamide], for which the IC50 is above 0.5 µM.

As for `CN(C)c1ccc(-c2ccc3nc(NC(=O)c4ccnn4C)sc3n2)cc1` [Product 20, N-(5-(4-(dimethylamino)phenyl)thiazolo[5,4-b]pyridin-2-yl)-1-methyl-1H-pyrazole-5-carboxamide], the IC50 was below 0.1 µM.

As for `Cc1ccccc1-c1ccc2nc(NC(=O)N3CCN(C)CC3)sc2n1` [Product 40, 4-methyl-N-(5-(o-tolyl)thiazolo[5,4-b]pyridin-2-yl)piperazine-1-carboxamide], the half-inhibitory concentration (IC50) was above 0.5 µM.

As to `Cn1nccc1C(=O)Nc1nc2ccc(-c3nccs3)nc2s1` [Product 28, 1-Methyl-N-(5-(thiazol-2-yl)thiazolo[5,4-b]pyridin-2-yl)-1H-pyrazole-5-carboxamide], the 50% inhibitory concentration (IC50) is above 0.5 µM.

Turning to `COc1cccc(-c2ccc3nc(NC(=O)c4ccnn4C)sc3n2)c1` [Product 16, N-(5-(3-methoxyphenyl)thiazolo[5,4-b]pyridin-2-yl)-1-methyl-1H-pyrazole-5-carboxamide], the half-inhibitory concentration (IC50) fell in the range of 0.1 to 0.5 µM.

For the molecule `CC(=O)Nc1ccccc1-c1ccc2nc(NC(=O)c3ccnn3C)sc2n1` [Product 35, N-(5-(2-acetamidophenyl)thiazolo[5,4-b]pyridin-2-yl)-1-methyl-1H-pyrazole-5-carboxamide], the 50% inhibitory concentration (IC50) was above 0.5 µM.

For `Cc1cnc(-c2ccc3nc(NC(=O)c4ccnn4C)sc3n2)s1` [Product 30, 1-Methyl-N-(5-(5-methylthiazol-2-yl)thiazolo[5,4-b]pyridin-2-yl)-1H-pyrazole-5-carboxamide], the IC50 was 0.1 to 0.5 µM.

Consider `CN(C)c1cccc(-c2ccc3nc(NC(=O)c4ccnn4C)sc3n2)c1` [Product 19, N-(5-(3-(dimethylamino)phenyl)thiazolo[5,4-b]pyridin-2-yl)-1-methyl-1H-pyrazole-5-carboxamide], for which the IC50 is above 0.5 µM.

In the case of `Cn1nccc1C(=O)Nc1cnc2cc(-c3ccccc3C(F)(F)F)[nH]c2c1` [Product 44, 1-methyl-N-(2-(2-(trifluoromethyl)phenyl)-1H-pyrrolo[3,2-b]pyridin-6-yl)-1H-pyrazole-5-carboxamide], the half-maximal inhibitory concentration (IC50) fell in the range of 0.1 to 0.5 µM.

Turning to `Cn1nccc1C(=O)Nc1nc2ccc(-c3ccccc3O)nc2s1` [Product 24, N-(5-(2-hydroxyphenyl)thiazolo[5,4-b]pyridin-2-yl)-1-methyl-1H-pyrazole-5-carboxamide], the IC50 was above 0.5 µM.

Take `CN(C)C(=O)c1cccc(-c2ccc3nc(NC(=O)c4ccnn4C)sc3n2)c1` [Product 17, N-(5-(3-(dimethylcarbamoyl)phenyl)thiazolo[5,4-b]pyridin-2-yl)-1-methyl-1H-pyrazole-5-carboxamide]: the IC50 is above 0.5 µM.

The values are drawn from patent US20230234967A1, “Fused Azole Heterocycles as AHR Antagonists” (Senda Biosciences, Inc., priority 2021, published 2023).
